Values quoted from earlier work, collected in patent US6569857B1, “Dietary supplement” (Drugtech Corporation, priority 1999, dated 2003).

Key:
[1] = system: spermatozoal zona binding; settings: oral dosing over a three month period, male infertility
[2] = system: malondialdehyde concentrations; settings: oral vitamin E, male infertility patients; high levels are indicia of decreased sperm motility

- increase in spermatozoal zona binding [1]: 50%
Substance: vitamin E
- malondialdehyde concentrations [2]: significantly decreased
